Columns and labels:
[1] = biological target: T1, human adenosine A2A receptor (Homo sapiens, UniProt P29274); assay: Human cloned A2A adenosine receptor binding assay ([3H]ZM241385 displacement, CHO membranes); conditions: [3H]ZM241385, CHO cells transfected with human recombinant A2A receptors
T1 construct: expressed in transfected cells; host or cells: CHO cells (membrane preparation)
Experimental: CHO Membranes Preparation
The human adenosine receptors have been transfected in CHO cells according with the method previously described by Klotz et al. (Naunyn-Schmied. Arch Pharm. 1998, 357: 1-9). Briefly, the cells are grown adherently and maintained in Dulbecco's Modified Eagles Medium with nutrient mixture F12 (DMEM/F12) without nucleosides, containing 10% fetal calf serum, penicillin (100 U/mL), streptomycin (100 μg/mL), L-glutamine (2 mM) and Geneticin (G418, 0.2 mg/ml) at 37° C. in 5% CO2/95% air. For membrane preparation the culture medium is removed and the cells are ished with phosphate-buffered saline and scraped off T75 flasks in ice-cold hypo tonic buffer (5 mM Tris HCl, 1 mM EDTA, pH 7.4). The cell suspension is homogenized with Polytron, the homogenate is spun for 10 min at 1000×g and the supernatant is then centrifuged for 30 min at 100,000×g. […]
All new synthesized compounds have been tested to evaluate their affinity to human A1, A2A, A2B and A3 adenosine receptors. […] Non-specific binding is determined in the presence of 10 μM of CHA and this is always ≦10% of the total binding. […] Non-specific binding is determined in the presence of 1 μM ZM 241385 and is about 20% of total binding. […] Bound and free radioactivity are separated by filtering the assay mixture through Whatman GF/B glass fiber filters using a Micro-Mate 196 cell harvester (Packard Instrument Co.). The filter bound radioactivity is counted on a Top Count (efficiency 57%) with Micro-Scint 20.
The protein concentration is determined according to a Bio-Rad method (Bradford, Anal Biochem. 1976, 72: 248-254) with bovine albumin as a standard reference. Inhibitory binding constant, Ki, values are calculated from those of IC50 according to Cheng & Prusoff equation (Biochem. Pharmacol. 1973, 22: 3099-3108): Ki=IC50/(1+[C*]/KD*) where [C*] is the concentration of the radioligand and KD* its dissociation constant. […] Data are expressed as geometric mean with 95% confidence limits in parentheses.

[2] = test system: 6-OHDA lesion rats; assay: 6-OHDA lesion of the middle forebrain bundle in rats, Protocol B (apomorphine-induced rotation); type: in vivo, rat; conditions: 30 mg/kg single i.p. dose; threshold dose of apomorphine 0.02 mg/kg i.p.; significant increase, p≦0.05; FIG. 1
Experimental: Adult male Sprague-Dowley rats (Harlan UK ltd., Bicester, Oxon, UK), weighing 255±15 g, are used in all experiments. The rats are housed in groups of up to 5 per cage, and the animals are fed an expanded rodent diet of RM1(E) SQC (Special Diets Services, Witham, UK) ab libitum, and allowed free access to water, under controlled temperature and 12 hour light-dark cycle.
The test compounds are formulated for dosing by initially wet grinding a known amount in approximately 10% of the final volume of vehicle, i.e., propylene glycol/polyethylene glycol (PEG400)/glucose (D5W)-15/15/70 v %, in a mortal and pestle. Once suitably wetted, approximately 30% of the remaining vehicle is added, stirred for up to 10 min, and then sonicated for approximately 5 min. This step is repeated twice, using remaining vehicle to provide even suspensions of 0.6, 2 and 6 mg/mL. No correction factor is applied. All test substance formulations are clear to light tan colored suspensions, stored at RT and protected from light until dosing. The dose volume for the test compounds is 5 mL/kg to provide dosages of 3, 10 and 30 mg/kg, respectively.
Apomorphine hydrochloride (HCl) hemihydrate (Sigma, UK) is formulated for dosing by dissolving a known amount in 0.9% w/v sodium chloride (Baxter Healthcare Ltd., UK) to produce a clear, colorless solution of 0.02 mg/mL. […]

T1 sequence (P29274 whole entry): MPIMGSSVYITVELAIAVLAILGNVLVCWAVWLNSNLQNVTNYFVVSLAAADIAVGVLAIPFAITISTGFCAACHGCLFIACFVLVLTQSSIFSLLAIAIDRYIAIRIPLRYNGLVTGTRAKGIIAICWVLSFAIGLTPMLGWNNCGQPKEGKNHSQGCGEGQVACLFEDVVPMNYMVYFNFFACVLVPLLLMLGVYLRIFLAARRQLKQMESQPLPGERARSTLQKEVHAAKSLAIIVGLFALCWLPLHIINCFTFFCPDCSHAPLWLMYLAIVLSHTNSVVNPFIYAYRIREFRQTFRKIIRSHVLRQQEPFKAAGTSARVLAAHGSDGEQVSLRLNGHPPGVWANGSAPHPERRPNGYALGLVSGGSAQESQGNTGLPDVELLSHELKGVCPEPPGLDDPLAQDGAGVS

Nc1nc2c(ccn2CCN2CCN(C(=O)c3ccc(F)cc3F)CC2)c2nc(-c3ccco3)nn12 [Example 4, (4-(2-(5-Amino-2-(furan-2-yl)-7H-pyrrolo[3,2-e][1,2,4]triazolo[1,5-c]pyrimidin-7-yl)ethyl)piperazin-1-yl)(2,4-difluorophenyl)methanone] gave a Ki [1] of roughly 1 nM.

Molecule CN(CCN(C)c1ccc(F)cc1F)CCn1ccc2c1nc(N)n1nc(-c3ccco3)nc21 [Example 29, N^1-(2-(5-Amino-2-(furan-2-yl)-7H-pyrrolo[3,2-e][1,2,4]triazolo[1,5-c]pyrimidin-7-yl)ethyl)-N^2-(2,4-difluorophenyl)-N^1,N^2-dimethylethane-1,2-diamine] has a Ki [1] of roughly 28 nM.

For Nc1nc2c(ccn2CCN2CCN(c3ccc(F)cc3F)CC2)c2nc(-c3ccco3)nn12 [Example 30, 7-(2-(4-(2,4-Difluorophenyl)piperazin-1-yl)ethyl)-2-(furan-2-yl)-7H-pyrrolo[3,2-e][1,2,4]triazolo[1,5-c]pyrimidin-5-amine], the Ki [1] was roughly 5 nM and the “number of contralateral rotations” value [2] was 228±38.

— US7691869B2, “Pyrrolotriazolopyrimidine derivatives, pharmaceutical compositions containing them and methods of treating conditions and diseases mediated by the adenosine A2A receptor activity” (King Pharmaceuticals Research and Development, Inc., priority 2008, dated 2010)
